Entries after “also recorded” stand apart in the source; their conditions may differ. Where two headings read alike, the source gives them in different places. Blank lines part the entries; values can stand above or below the substance they belong to. Where no end group is shown, it is not given here. [ ]: non-standard residue; d: D form.
Key:
CCR2 [1] = molecular target: T1, CCR2 (Homo sapiens, UniProt P41597); experiment: CCL2 (MCP-1) elicited chemotaxis of human monocytes; type: cell-based; parameters: endogenous in cells; host or cells: human monocytes; conditions: FIG. 3; methods similar to FIG. 2; low concentration
T1 sequence (P41597 1-360 isoform P41597-2): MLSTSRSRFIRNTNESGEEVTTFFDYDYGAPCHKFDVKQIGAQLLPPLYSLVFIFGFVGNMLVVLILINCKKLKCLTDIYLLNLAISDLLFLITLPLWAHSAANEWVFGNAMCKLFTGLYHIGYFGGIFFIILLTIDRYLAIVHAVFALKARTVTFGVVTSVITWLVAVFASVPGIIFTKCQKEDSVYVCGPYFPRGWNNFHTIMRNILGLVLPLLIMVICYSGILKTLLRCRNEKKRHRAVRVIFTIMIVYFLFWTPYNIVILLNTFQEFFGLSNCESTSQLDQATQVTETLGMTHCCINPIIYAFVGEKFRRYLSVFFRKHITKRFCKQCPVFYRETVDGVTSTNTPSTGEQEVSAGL
Experimental: Monocytes were treated with the indicated doses of RAP-103 for 30 min before chemotaxis against human CCL2 (MCP-1) or CCL4 (MIP-1β) (both 50 ng/mL) for 90 min. Data (chemotactic index) are presented as mean ±SEM. The chemotactic index for MCP-1 without RAP-103 was 2.5-3.5 times over control, whereas for MIP-1 ? without RAP-103, it was approximately 2 times over control. Data are presented as mean ±SEM. (*P<0.05, **P<0.01 vs RAP-103 untreated). Data are from (12), FIG. 1. […] Dual-chemokine CCR2/CCR5 receptor antagonists may have added therapeutic value by blocking multiple inflammatory pathways.
The methods employed are similar to those in FIG. 2.

response to bradykinin = conditions: amounts up to 50,000 times the standard challenge of bradykinin; cited from earlier work
[2] = molecular target: CCR2 receptor on human monocytes (human) (UniProt P41597); experiment: cell-based or functional assay
IL-8 = conditions: Hu; phenotype M1; cited from earlier work
IL-10 = conditions: Hu; phenotype M2; cited from earlier work
activated microglia = experiment: Pre-clinical animal models: neuron loss with aging, activated microglial neurotoxicity; type: in vivo
From the text: In humans DAPTA improved cognition, speed of information processing and functional brain imaging in neuro-AIDS (24, 25). Therefore, it is believed that the compounds according to the present invention have a strong potential to improve cognitive deficits in the indicated conditions due to shared neurodegenerative inflammatory mechanisms.

IL-4 = conditions: Hu; phenotype M2; cited from earlier work
TLR4/MyD88 [3] = conditions: Rat; phenotype M1; cited from earlier work
IL-23 = conditions: Hu; phenotype M1; cited from earlier work
IL-1 = conditions: Hu; phenotype M1; cited from earlier work
NFkB = conditions: Hu; phenotype M1; cited from earlier work
IL-13 = conditions: Hu; phenotype M2; cited from earlier work
STAT3 = conditions: Hu; phenotype M1; cited from earlier work
IL-6 [4] = conditions: Hu; phenotype M1; cited from earlier work
TNFα [5] = conditions: Hu; phenotype M1; cited from earlier work
ICAM-1 = conditions: Hu; phenotype M1; cited from earlier work
[6] = humans, neuro-AIDS; cited from earlier work
CCL5 = conditions: mouse synaptosomes; cited from earlier work
[7] = molecular target: insulin-like growth factor 1 receptor (IGF-1R) (Homo sapiens, UniProt P08069)
Sequence of insulin-like growth factor 1 receptor (IGF-1R) (P08069 31-736 limits assumed): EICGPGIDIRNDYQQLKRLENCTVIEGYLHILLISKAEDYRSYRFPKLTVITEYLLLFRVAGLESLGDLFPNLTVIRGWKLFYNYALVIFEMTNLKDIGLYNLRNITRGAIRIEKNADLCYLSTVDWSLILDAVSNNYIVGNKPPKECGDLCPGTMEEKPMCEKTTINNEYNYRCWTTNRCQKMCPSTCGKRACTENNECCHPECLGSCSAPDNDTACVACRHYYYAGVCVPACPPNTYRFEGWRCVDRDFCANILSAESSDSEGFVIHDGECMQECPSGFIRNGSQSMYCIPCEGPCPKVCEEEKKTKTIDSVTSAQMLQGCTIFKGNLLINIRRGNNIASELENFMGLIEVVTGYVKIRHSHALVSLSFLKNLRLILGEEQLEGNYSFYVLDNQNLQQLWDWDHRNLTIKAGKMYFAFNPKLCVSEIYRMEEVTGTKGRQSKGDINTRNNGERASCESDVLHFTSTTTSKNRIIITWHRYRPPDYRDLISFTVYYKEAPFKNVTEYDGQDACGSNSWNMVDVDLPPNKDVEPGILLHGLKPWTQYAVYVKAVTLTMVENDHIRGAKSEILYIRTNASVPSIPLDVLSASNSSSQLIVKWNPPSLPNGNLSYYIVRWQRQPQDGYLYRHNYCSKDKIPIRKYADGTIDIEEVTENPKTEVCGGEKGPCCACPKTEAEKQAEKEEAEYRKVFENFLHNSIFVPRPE
Experimental: (§1) To determine whether all-D-TTNYT (SEQ ID NO:1) blocks maturation of antigen-presenting dendritic cells, human PBMC's were isolated from peripheral blood by Ficoll-Paque centrifugation and then monocytes were isolated by negative selection using immunobeads (Miltenyi). Human monocyte derived immature dendritic cells (iDCs) were then generated by treating monocytes with GM-CSF/IL4.
The iDCs were treated with all-D-TTNYT (SEQ ID NO:1), generic name RAP103 (12), at 10-12 M for 30 min. […]

CCR2 [8] = molecular target: T1, CCR2; conditions: 30 min pretreatment, CCL2 50 ng/mL for 90 min, FIG. 2, cited from earlier work
TLR4/MyD88 [9] = conditions: iDCs, peptide 10-12 M for 30 min, then LPS 100 ng/ml, 48 hrs
Experimental: as §1
The iDCs were treated with all-D-TTNYT (SEQ ID NO:1), generic name RAP103 (12), at 10-12 M for 30 min. After 30 min LPS (100 ng/ml) was added to the cells and cells were analyzed after 48 hrs. for surface maturation markers using fluorescent labeled antibodies by flow cytometry.

CCR2 [10] = conditions: Rat, nerve injured, oral gavage 0.05-1 mg/kg for 7 days, M1
From the text: (§2) The specific experimental details are provided in Padi, 2012 (12).

CCR5 [11] = conditions: Rat, nerve injured, oral gavage 0.05-1 mg/kg for 7 days, M1
From the text: as §2

MIP-1α (CCL3) = conditions: Rat, nerve injured, oral gavage 0.05-1 mg/kg for 7 days, M1
From the text: as §2

IL-1β = conditions: Rat, nerve injured, oral gavage 0.05-1 mg/kg for 7 days, M1
From the text: as §2

MCP-1 (CCL2) = conditions: Rat, nerve injured, oral gavage 0.05-1 mg/kg for 7 days, M1
From the text: as §2

TNFα [12] = conditions: Rat, nerve injured, oral gavage 0.05-1 mg/kg for 7 days, M1
From the text: as §2

IL-6 [13] = conditions: Rat, nerve injured; oral gavage 0.05-1 mg/kg for 7 days; M1
From the text: as §2

CCR5 [14] = molecular target: CCR5 (Homo sapiens, UniProt P51681); conditions: 30 min pretreatment, CCL4 50 ng/mL for 90 min, FIG. 2, cited from earlier work
Sequence of CCR5 (Homo sapiens, UniProt P51681) (P51681 whole entry): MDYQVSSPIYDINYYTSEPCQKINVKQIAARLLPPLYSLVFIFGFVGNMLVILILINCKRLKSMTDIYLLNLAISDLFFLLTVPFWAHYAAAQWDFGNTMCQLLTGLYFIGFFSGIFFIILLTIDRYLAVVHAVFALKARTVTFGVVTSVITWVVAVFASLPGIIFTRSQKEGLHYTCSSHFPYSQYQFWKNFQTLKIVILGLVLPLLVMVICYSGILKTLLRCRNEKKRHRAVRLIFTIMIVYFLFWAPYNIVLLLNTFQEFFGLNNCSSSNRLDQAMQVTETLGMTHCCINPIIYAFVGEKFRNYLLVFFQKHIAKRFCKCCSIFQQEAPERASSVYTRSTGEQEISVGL

[15] = molecular target: CCR5 receptor on human monocytes (human) (UniProt P51681); experiment: cell-based or functional assay
[16] = listed as all-D-pentapeptide TTNYT

Substance: all-D-SSTYR: all-D-version of DAPTA related pentapeptide SSTYR ([dS][dS][dT][dY][dR])
- CCL2 (MCP-1) human monocyte chemotaxis (CCR2 [1]): antagonists

Substance: all-D-bradykinin
- inhibition of the response to bradykinin or bradykinin-like effect (response to bradykinin): neither any inhibition of the response to bradykinin, or any bradykinin-like effect

Substance: all-D-TTSYT: all-D-version of DAPTA related pentapeptide TTSYT ([dT][dT][dS][dY][dT])
- CCL2 (MCP-1) human monocyte chemotaxis (CCR2 [1]): antagonists

- chemotactic index of human monocytes, without RAP-103 (times over control) [2]: 2.5 to 3.5
Substance: human CCL2 (MCP-1) (from UniProt P13500 24-99) (ligand)

Substance: Dala1-peptide T-amide [DAPTA]
- IL-8 Change (IL-8): reduced; also recorded: decrease
- IL-10 Change (IL-10): elevated; also recorded: increase
- activated microglial mediated neurotoxicity and release of cytokines and chemokines (activated microglia): blocked
- loss of neurons with aging (activated microglia): prevented
- IL-4 Change (IL-4): elevated; also recorded: increase
- TLR4/MyD88 Change (TLR4/MyD88 [3]): decrease
- IL-23 Change (IL-23): decrease
- IL-1 Change (IL-1): reduced; also recorded: decrease
- NFkB Change (NFkB): decrease
- IL-13 Change (IL-13): elevated; also recorded: increase
- STAT3 Change (STAT3): decrease
- IL-6 Change (IL-6 [4]): reduced; also recorded: decrease
- TNFα Change (TNFα [5]): reduced; also recorded: decrease
- ICAM-1 Change (ICAM-1): decrease
- cognition [6]: improved
- functional brain imaging [6]: improved
- speed of information processing [6]: improved
- CCL5 facilitated release of aspartate (CCL5): blocked

Substance: all-D-NTSYR: all-D-version of DAPTA related pentapeptide NTSYR ([dN][dT][dS][dY][dR])
- CCL2 (MCP-1) human monocyte chemotaxis (CCR2 [1]): antagonists

Substance: all-D-TTNYT
- DC maturation of these four markers caused by LL37 [7]: no effect
- MCP-1 (CCL2)-elicited chemotaxis of human monocytes (CCR2 [8]): potently blocking
- MCP-1 (CCL2)-elicited chemotaxis of human monocytes (CCR2 [8]; listed as RAP-103): dual-antagonist
- CD58 (adhesion molecule) expression (TLR4/MyD88 [9]): reduced
- CD86 expression (TLR4/MyD88 [9]): reduced
- HLA-DR expression (TLR4/MyD88 [9]): reduced
- ICAM1 (adhesion molecule) expression (TLR4/MyD88 [9]): reduced
- TLR4-mediated maturation of antigen presenting dendritic cells (TLR4/MyD88 [9]): blocks
- CCR2 Change (CCR2 [10]): decrease
- CCR2 Change (CCR2 [10]; [16]): lowering
- CCR5 Change (CCR5 [11]): decrease
- CCR5 Change (CCR5 [11]; [16]): lowering
- MIP-1α (CCL3) Change (MIP-1α (CCL3)): decrease
- MIP-1α (CCL3) Change (MIP-1α (CCL3); [16]): lowering
- IL-1β Change (IL-1β): decrease
- IL-1β Change (IL-1β; [16]): lowering
- MCP-1 (CCL2) Change (MCP-1 (CCL2)): decrease
- MCP-1 (CCL2) Change (MCP-1 (CCL2); [16]): lowering
- TNFα Change (TNFα [12]): decrease
- TNFα Change (TNFα [12]; [16]): lowering
- IL-6 Change (IL-6 [13]): decrease
- MIP-1β (CCL4)-elicited chemotaxis of human monocytes (CCR5 [14]): potently blocking
- MIP-1β (CCL4)-elicited chemotaxis of human monocytes (CCR5 [14]; listed as RAP-103): dual-antagonist

- chemotactic index of human monocytes, without RAP-103 (times over control) [15]: 2
Substance: CCL4 (MIP-1β) (from UniProt P13236 24-92) (ligand)

Reference: patent publication US20190022166A1, “ORAL ANTI-INFLAMMATORY PEPTIDES TO TREAT EPILEPSY, SEIZURES AND CNS DISORDERS” (Creative Bio-Peptides Inc., priority 2017, published 2019)
